Results from publication PMC9481597 (Communications Biology, 2022).
“And” between values parts separate entries of the source, which are not always exact repeats. Identical values can stand only once. “Also recorded” adds a separate entry of the source. Like-named read-outs stand apart in the source and are kept apart here. Marks after values point to notes of the source that are not given here.

How the values were obtained:
[1] = molecular target: T1, MPro^1–199 (Severe acute respiratory syndrome coronavirus 2, UniProt P0DTC1); set-up: species or system SARS-CoV-2
T1 construct: made in house; host or cells: E. coli BL21-DE3

[2] = molecular target: T2, MPro^WT (Severe acute respiratory syndrome coronavirus 2, UniProt P0DTC1); assay type: binding; settings: protein with 2x inhibitor, diluted to 20 µM in 5% acetic acid
T2 construct: The full-length wild-type (MPro^WT) was expressed and purified; made in house; host or cells: E. coli BL21-DE3

[3] = tested on: MPro^M; set-up: method as in earlier work; settings: in presence of GC373; supplement numbering; cited from earlier work
[4] = molecular target: T1, MPro^1–199; assay type: binding; settings: for protein-inhibitor adduct in mass spectra: NMV: 50 µM mixtures, GC373: high concentrations, diluted to 20 µM in 5% acetic acid
[5] = molecular target: T3, MPro^10–306 (Severe acute respiratory syndrome coronavirus 2, UniProt P0DTC1); assay type: binding, SARS-CoV-2
T3 construct: MPro^10–306 spans the region 10–306 of MPro followed by GP-6His; GP-6His (C, cleaved yes); made in house; host or cells: E. coli BL21-DE3

[6] = molecular target: T4, MPro^1–196 (Severe acute respiratory syndrome coronavirus 2, UniProt P0DTC1); assay type: binding; settings: NMV: 50 µM mixtures; GC373: high concentrations; diluted to 20 µM in 5% acetic acid
T4 construct: MPro^1–196 spans residues 1–196; 6His, spacer and TEV protease cleavage site (N, cleaved yes); made in house; host or cells: E. coli BL21-DE3

[7] = molecular target: T5, MPro^1–199 (monomeric catalytic domain) (Severe acute respiratory syndrome coronavirus 2, UniProt P0DTC1); assay type: binding, SARS-CoV-2
[8] = molecular target: T2, MPro^WT; assay: Monomer-dimer equilibrium of MPro^WT in the presence of inhibitor; set-up: species or system SARS-CoV-2; settings: predicted because of thermodynamic stabilization of the dimer upon inhibitor binding
Protocol: Enzyme kinetics were carried out as described previously in reference 1. ^(a)Calculated from Lineweaver-Burk plot. ^(b)Calculated from plot of v vs [E].

[9] = molecular target: T4, MPro^1–196; set-up: species or system SARS-CoV-2
[10] = molecular target: T3, MPro^10–306; set-up: species or system SARS-CoV-2
[11] = molecular target: T4, MPro^1–196; assay type: binding, SARS-CoV-2
[12] = tested on: MPro^M (full-length monomeric double mutant E290A, R298A); settings: ITC, cited from earlier work
[13] = molecular target: T5, MPro^1–199 (monomeric catalytic domain); assay type: binding, SARS-CoV-2; set-up: made in house; host or cells: E. coli BL21-DE3
[14] = molecular target: T1, MPro^1–199; assay type: biochemical, SARS-CoV-2
[15] = molecular target: T3, MPro^10–306; assay type: binding; settings: 50 µM mixtures, diluted to 20 µM in 5% acetic acid

SMILES	Kdimer.app [1] [µM]	apparent Kdimers [1]	dimer contribution (in monomer units) [1] [%]	faster sedimenting peak, share of signal [1]	protein-inhibitor adduct in mass spectra [2]	protein-inhibitor adduct in mass spectra [4]	protein-inhibitor adduct in mass spectra [6]	Kdimer.app [8]	Kdimer.app [9] [µM]	Kdimer.app [10]	N [11]	ΔG [11] [kJ/mol]	ΔH [11] [kJ/mol]	ΔS [11] [cal/mol/K]	N [13]	ΔG [13] [kJ/mol]	ΔH [13] [kJ/mol]	ΔS [13] [cal/mol/K]	further results
CC(C)C[C@H](NC(=O)OCc1ccccc1)C(=O)N[C@H](C=O)C[C@@H]1CCNC1=O [GC373]	1200 ± 200	more than 175 µM	20	about 14%	not observed	only the molecular ions of the unmodified protein	only the molecular ions of the unmodified protein	≤2^(d) µM	>1200	>>1200 µM	0.88 ± 0.09	-25	-6.19 ± 1	15	0.9 ± 0.03	-25.9	-10 ± 0.42	12.7	Kdimer.app [3]: 6.2^(e^) µM; N [5]: 0.54 ± 0.03; ΔG [5]: -25 kJ/mol; ΔH [5]: -5.77 ± 0.42 kJ/mol; ΔS [5]: 15.3 cal/mol/K; Kd ([5]; read-out: Kd = Ki): 44 ± 8 µM; fold increase in Kd (weaker binding) relative to MPro^WT [7]: 200 to 300 fold; net ΔG difference relative to MPro^WT [7]: about 3 kcal/mol; Kd ([7]; read-out: Kd range): 32 to 45 µM; dimer formation in SV-AUC [9]: no dimer was observed; Kd ([11]; read-out: Kd = Ki): 45 ± 20 µM; N [12]: 1.07 ± 0.02; ΔG [12]: -30.1 kJ/mol; ΔH [12]: -25.1 ± 0.84 kJ/mol; ΔS [12]: 3.9 cal/mol/K; Kd ([12]; read-out: Kd = Ki): 6.2 µM and 6.13 µM; Kd ([13]; read-out: Kd = Ki): 32 ± 5 µM
CC(C)(C)[C@H](NC(=O)C(F)(F)F)C(=O)N1C[C@H]2[C@@H]([C@H]1C(=O)N[C@H](C#N)C[C@@H]1CCNC1=O)C2(C)C [NMV, nirmatrelvir]	180 ± 0.01	more than 175 µM	52	68%	nearly equal distribution of MPro^WT and the MPro^WT-NMV adduct	adducts were observed	adducts were observed	≤2^(d) µM	510 ± 0.05	>510 µM	1.05 ± 0.03	-28	-7.53 ± 0.42	16.3	0.97 ± 0.04	-27.2	-16.3 ± 0.42	8.8	catalytic activity with the FRET substrate upon addition of inhibitor [14]: inhibited; slower sedimenting (2.31S) species, share of integrated signal [1]: 32%; stability of protein-adducts ([4]; 20 µM in acetic acid at ambient temperature (Figs. 7d and S10b)): stable for days; dimer contribution (in monomer units) [9]: 33%; dimer formation in SV-AUC [10]: no detectable dimer formation; protein-inhibitor adduct in mass spectra [15]: very little binding; also recorded: adducts were observed
